For one data set, the target named is T1, COX1 (Homo sapiens, UniProt P23219).
T1 construct: purchased Eurofins Discovery (San Diego, CA, USA), SAFETYscan E/IC50 SELECT service
As to the kind of experiment: SAFETYscan COX1 enzymatic inhibition. In kind it is biochemical. The note with it: 0.1 µM to 10 µM tested. How it is done: (§1) Pharmacological profiling was performed with the SAFETYscan^TM E/IC50 SELECT service provided by Eurofins Discovery (San Diego, CA, USA), based on the findings of in vitro assays used in pharmaceutical companies. Increasing concentrations of Thiamidol (0.1 µM to 10 µM) were tested against various ion channels, and a total of seventy-eight assays performed utilizing various output reads, including GPCR cAMP modulation, calcium mobilization, nuclear hormone receptor interactions, KINOMEscan binding, ion channel interactions, transporter interactions and enzymatic reactions. Methods are available online via Eurofins Discovery in the format of a sample report.

The subject of a further data set is hyperpigmentation. The note with it: cited from earlier work.
Data set [1] in a line: 3T3 Neutral Red Uptake (NRU) cytotoxicity / phototoxicity, OECD TG 432. In kind it is cell-based. The following applies: mouse, 3T3 cells; absence of UV light; Beiersdorf internal report; read-out: NR50 (IC50 for neural uptake), cytotoxicity in 3T3 NRU. An excerpt:
(§2) From established in vitro guideline studies, potential genotoxicity and toxic effects at a cellular level can be elucidated. This can be complemented with a weight-of-evidence of any observed indicators of cytotoxicity in multiple assays. For instance, the 3T3 Neutral Red Uptake (NRU) assay, which was initially developed for phototoxicity, can provide an indication for local toxicity in the absence of UV light.
(§3) Thiamidol used for testing was sourced from Alzchem Group AG (Trostberg, Germany) with a purity of 99% w/w. For standard toxicological endpoints of skin irritation, phototoxicity and genotoxicity, in vitro studies were performed following equivalent methods to those described in the corresponding OECD Testing Guidelines: OECD Test Guideline No. 431 (In Vitro Skin Corrosion: Human Skin Model Test); OECD Test Guideline No. 439 (In Vitro Skin Irritation: Reconstructed Human Epidermis Test Method); OECD Test Guideline No. 432 (In Vitro 3T3 NRU Phototoxicity Test); OECD Test Guideline No. 471 (Bacterial Reverse Mutation Assay); OECD Test Guideline No. 487 (in vitro Mammalian Cell Micronucleus Test); and OECD Test Guideline No. 476 (in vitro Mammalian Cell Gene Mutation Test).

Data set [2] concerns 3T3. The data set is described as above. In kind it is cell-based. The note with it: presence of UV light.
Description: as §2, §3

In data set [3] the target is T2, norepinephrine transport (NET) (Homo sapiens, UniProt P23975).
T2 construct: purchased Eurofins Discovery (San Diego, CA, USA), SAFETYscan E/IC50 SELECT service
T2 sequence (P23975 whole entry): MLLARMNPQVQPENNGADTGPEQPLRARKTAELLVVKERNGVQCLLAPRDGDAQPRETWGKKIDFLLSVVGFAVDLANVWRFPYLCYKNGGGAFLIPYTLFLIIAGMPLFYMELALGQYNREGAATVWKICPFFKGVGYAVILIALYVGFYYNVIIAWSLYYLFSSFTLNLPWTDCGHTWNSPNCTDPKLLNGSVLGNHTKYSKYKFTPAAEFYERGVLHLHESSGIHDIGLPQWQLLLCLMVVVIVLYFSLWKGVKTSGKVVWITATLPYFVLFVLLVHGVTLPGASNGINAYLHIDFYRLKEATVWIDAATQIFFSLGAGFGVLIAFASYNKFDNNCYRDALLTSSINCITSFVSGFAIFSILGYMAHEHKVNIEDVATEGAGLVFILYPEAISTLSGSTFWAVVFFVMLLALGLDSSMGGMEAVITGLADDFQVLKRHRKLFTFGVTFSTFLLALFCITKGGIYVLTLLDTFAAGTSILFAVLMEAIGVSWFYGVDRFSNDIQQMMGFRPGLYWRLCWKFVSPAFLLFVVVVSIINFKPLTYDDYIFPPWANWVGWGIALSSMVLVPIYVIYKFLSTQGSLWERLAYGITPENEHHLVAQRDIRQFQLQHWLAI
As to the kind of experiment: SAFETYscan NET assay. It is filed as biochemical. The note with it: 0.1 µM to 10 µM tested. The method, then: as §1

A short description of data set [4]: substrate depletion in human hepatocytes. In kind it is in vitro ADME. The following applies: 5 μM, 37 °C, over 240 min. The method, then: (§4) Metabolism in skin is evident with approx. 50% of Thiamidol degraded in a pig skin assay compared to controls after 24 h, irrespective of test sample concentration. A semiquantitative analysis of the metabolites in the porcine in vitro model is shown in Figure 2, with the primary reactions due to direct glucuronic acid conjugation (phase II metabolism) at one of the free hydroxyl groups. Further degradation products could be attributed to a combination of phase I and phase II metabolism, i.e., hydroxylation and methylation.
(§5) A biotransformation study analyzed the degradation of Thiamidol in fresh pig skin at room temperature after 24 h exposure. A solution of 0.3% and 1.0% was prepared in 2-proanol. From this, about 25 µL of test solution was placed in three vials with 2.5 g of skin, as well as controls without skin or containing skin only. All samples were mixed with 0.5 mL of water, shaken and left open. Determination of the content of the test sample was carried out in parallel. After 24 h incubation, the samples were mixed with 2 mL of acetonitrile, placed in an ultrasonic bath for 10 min (resulting in a stop to any metabolic reactions) and extracted with 50% methanol, then shaken well and placed in an ultrasonic bath and filtered. […]
The in vitro intrinsic clearances and half-life readouts were expressed as µL/min/10^6 cells and in minutes, respectively. […]

Data set [5] has as its system reconstructed human epidermis. As to the kind of experiment: in vitro skin corrosion / skin irritation, OECD TG 431 and 439 (human skin model, reconstructed human epidermis). In kind it is cell-based. The following applies: non-animal OECD methods.
Description: These are amongst the first and most established non-animal methods adopted by the Organisation for Economic Co-operation and Development. Clinical skin tolerability studies for the final formulation containing Thiamidol provide confirmatory evidence but also information about consumer sensory experiences.
as §3

A short description of data set [6]: biotransformation in fresh pig skin. It is filed as in vitro ADME. The note with it: after 24 h, irrespective of test sample concentration (0.3% and 1.0%). The method, then: as §4
as §5, with “filtered. Metabolites were then identified using liquid chromatography coupled with mass spectroscopy.” for “filtered.”

The next data set addresses T3, dopamine transport (DAT) (Homo sapiens, UniProt Q01959).
T3 construct: purchased Eurofins Discovery (San Diego, CA, USA), SAFETYscan E/IC50 SELECT service
As to the kind of experiment: SAFETYscan DAT assay. The following applies: 0.1 µM to 10 µM tested. In kind it is biochemical. The method, then: as §1

The target of another data set is T4, COX2 (Homo sapiens, UniProt P35354).
T4 construct: purchased Eurofins Discovery (San Diego, CA, USA), SAFETYscan E/IC50 SELECT service
T4 sequence (P35354 18-604): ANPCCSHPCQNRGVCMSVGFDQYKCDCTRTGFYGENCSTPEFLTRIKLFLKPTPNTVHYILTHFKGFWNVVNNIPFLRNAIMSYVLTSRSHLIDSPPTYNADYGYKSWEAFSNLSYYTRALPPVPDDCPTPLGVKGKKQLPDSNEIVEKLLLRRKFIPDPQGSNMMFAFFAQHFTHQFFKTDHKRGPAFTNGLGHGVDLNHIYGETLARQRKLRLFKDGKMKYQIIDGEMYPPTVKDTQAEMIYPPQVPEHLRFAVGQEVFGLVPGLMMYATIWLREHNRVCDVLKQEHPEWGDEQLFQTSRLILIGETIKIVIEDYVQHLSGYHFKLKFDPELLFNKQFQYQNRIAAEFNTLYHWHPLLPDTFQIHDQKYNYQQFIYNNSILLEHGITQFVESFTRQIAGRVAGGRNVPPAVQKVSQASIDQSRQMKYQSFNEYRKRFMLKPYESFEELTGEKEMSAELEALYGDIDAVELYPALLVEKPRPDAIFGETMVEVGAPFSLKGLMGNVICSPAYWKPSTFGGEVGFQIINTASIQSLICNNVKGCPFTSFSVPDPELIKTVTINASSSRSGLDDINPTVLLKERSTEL
As to the kind of experiment: SAFETYscan COX2 enzymatic inhibition. In kind it is biochemical. The note with it: 0.1 µM to 10 µM tested. The method, then: as §1

The target of data set [7] is T5, monoamine oxidase A (MOAO) (Homo sapiens, UniProt P21397).
T5 construct: purchased Eurofins Discovery (San Diego, CA, USA), SAFETYscan E/IC50 SELECT service
T5 sequence (P21397 1-527): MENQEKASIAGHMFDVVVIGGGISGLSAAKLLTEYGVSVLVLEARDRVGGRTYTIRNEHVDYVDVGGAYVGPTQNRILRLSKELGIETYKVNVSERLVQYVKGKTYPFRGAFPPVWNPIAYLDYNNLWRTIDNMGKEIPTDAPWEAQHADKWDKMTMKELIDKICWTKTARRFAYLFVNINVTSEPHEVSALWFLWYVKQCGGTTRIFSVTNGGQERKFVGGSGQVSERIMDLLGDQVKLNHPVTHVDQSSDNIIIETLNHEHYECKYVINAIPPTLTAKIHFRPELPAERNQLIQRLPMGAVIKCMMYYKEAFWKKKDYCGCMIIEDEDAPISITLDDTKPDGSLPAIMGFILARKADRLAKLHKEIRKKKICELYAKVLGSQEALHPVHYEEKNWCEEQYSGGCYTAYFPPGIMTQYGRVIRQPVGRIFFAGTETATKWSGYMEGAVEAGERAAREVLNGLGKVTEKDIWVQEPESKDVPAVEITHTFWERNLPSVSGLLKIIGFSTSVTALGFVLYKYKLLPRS
As to the kind of experiment: SAFETYscan monoamine oxidase A enzymatic inhibition. In kind it is biochemical. The note with it: 0.1 µM to 10 µM tested. How it is done: as §1

Data set [8] concerns the target recombinant human tyrosinase (hTyr). Also noted: method as in PMID 29427586. The following applies: read-out: half-maximal inhibitory concentration (IC50) for hTyr; cited from earlier work.
Data set [9] has as its system 3T3. Further details: method as in PMID 15598357. The following applies: same assay; read-out: IC50 for cytotoxicity in 3T3 Neutral Red Uptake (NRU); cited from earlier work.

Each structure is given as a SMILES string.

T3 sequence (Q01959 whole entry): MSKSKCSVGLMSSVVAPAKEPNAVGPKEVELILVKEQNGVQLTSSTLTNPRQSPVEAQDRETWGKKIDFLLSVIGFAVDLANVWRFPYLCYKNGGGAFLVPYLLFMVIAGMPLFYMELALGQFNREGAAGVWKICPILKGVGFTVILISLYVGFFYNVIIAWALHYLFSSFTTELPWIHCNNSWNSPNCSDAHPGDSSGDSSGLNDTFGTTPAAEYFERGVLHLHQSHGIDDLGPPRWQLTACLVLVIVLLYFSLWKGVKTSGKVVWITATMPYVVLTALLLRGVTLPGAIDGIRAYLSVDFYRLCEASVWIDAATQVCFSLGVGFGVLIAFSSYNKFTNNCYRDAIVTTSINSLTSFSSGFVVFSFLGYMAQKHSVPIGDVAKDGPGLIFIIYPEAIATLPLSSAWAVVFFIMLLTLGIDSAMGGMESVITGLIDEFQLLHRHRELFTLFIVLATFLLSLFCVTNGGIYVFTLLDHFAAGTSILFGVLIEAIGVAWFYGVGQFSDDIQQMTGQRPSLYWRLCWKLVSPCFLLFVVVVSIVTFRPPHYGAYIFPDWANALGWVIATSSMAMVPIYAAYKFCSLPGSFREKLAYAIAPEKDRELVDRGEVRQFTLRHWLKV
T1 sequence (P23219 24-599): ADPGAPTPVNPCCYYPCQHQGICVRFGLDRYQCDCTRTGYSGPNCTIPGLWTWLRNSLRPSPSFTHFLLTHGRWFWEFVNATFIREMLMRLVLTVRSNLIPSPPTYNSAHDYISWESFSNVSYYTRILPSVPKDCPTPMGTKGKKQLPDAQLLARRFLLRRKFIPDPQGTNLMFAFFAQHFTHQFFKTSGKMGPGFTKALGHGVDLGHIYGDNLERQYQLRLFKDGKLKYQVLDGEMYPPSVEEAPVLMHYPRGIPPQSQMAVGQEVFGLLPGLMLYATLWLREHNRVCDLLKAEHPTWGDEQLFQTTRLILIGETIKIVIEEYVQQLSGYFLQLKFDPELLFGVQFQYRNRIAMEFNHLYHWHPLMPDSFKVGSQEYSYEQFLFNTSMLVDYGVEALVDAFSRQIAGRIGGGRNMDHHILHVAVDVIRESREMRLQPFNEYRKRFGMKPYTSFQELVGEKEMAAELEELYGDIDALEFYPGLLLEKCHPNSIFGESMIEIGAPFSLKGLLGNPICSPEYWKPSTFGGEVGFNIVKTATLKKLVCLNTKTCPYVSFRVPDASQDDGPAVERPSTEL

Regarding `CC(C)C(=O)Nc1nc(-c2ccc(O)cc2O)cs1` [Thiamidol, isobutylamido thiazolyl resorcinol], the IC50 against COX1 was more than 1000 nM; in [1], 136 µM; in data set [3], 360 nM; on dopamine transport (DAT), more than 1000 nM; against COX2, more than 1000 nM; in data set [7], more than 1000 nM. For the same compound, the IC50 in data set [8] was 1100 nM. Besides, in the data set on hyperpigmentation (Thiamidol formulations, diverse skin- and phototypes), the “adverse effects in clinical studies” value is on record as “no significant adverse effects”. Moreover, in the data set with hyperpigmentation (UV-induced solar lentigines, melasma, acne- and laser-induced PIH), the “effect on hyperpigmentation in clinical studies” value is given as “effectively reduces hyperpigmentation”. Also, in the data set with 3T3 [2], the “phototoxicity: distinction of NR50 in the presence of UV light” value is “no biologically significant distinction”. In [4], the “in vitro half-life in human hepatocytes” value is recorded as “in the minute range”. The “skin corrosion and irritation category” value in [5] is reported as “not categorized as corrosive or irritating to the skin”. Besides, the “degraded in pig skin assay compared to controls” value in data set [6] is given as “approx. 50%”.

As to `Oc1ccccc1O` [catechol], in the data set on 3T3 [9], the IC50 was 0.1 µM.

Turning to `Oc1ccc(O)cc1` [hydroquinone], in the data set with 3T3 [9], the IC50 was 12.9 µM.

For the compound `Oc1cccc(O)c1` [resorcinol, 1,3-benzenediol], the IC50 in the data set on 3T3 [9] was 17.3 µM.

These data come from PMC12785564, “Targeting Melanin Production: The Safety of Tyrosinase Inhibition” (International Journal of Molecular Sciences, 2025).
